In one data set the test system is β-oxidation. The note with it: literature ref. 17, cited from earlier work.
The conditions of data set [1]: previous studies; rapid phase = oxidation, slow phase = storage; cited from earlier work.
A short description of data set [2]: microPET imaging and myocardial time-activity curves (tracer kinetics) in a fed rat. It counts as in vivo. The method, then: Animal Preparation. All animal procedures are conducted in compliance with the guidelines for the care and use of research animals established by the Animal Studies Committee of Washington University. Animal preparation is performed as described previously.^24-26 Rats are housed in metabolism cages and anesthetized by inhalation of […] isoflurane administered via an induction chamber. Anesthesia can be maintained throughout the imaging session by delivering 1%-1.5% isoflurane via a custom-designed nose cone. Venous access is via the right jugular vein. Body temperature can be maintained using a circulating water blanket and a heat lamp. Heart and respiration rates can be monitored throughout the process.
PET Acquisition. The animals can be secured in a custom-designed acrylic restraining device and placed inside the field of view of the small-animal imaging PET scanner. Imaging acquisition starts Ss after a bolus injection of tracer via the right jugular catheter. The imaging protocol consists of dynamic acquisition of microPET images of ^11C-palmitate (5-7mCI) followed by ^18F-FAA or by ^18F-VLDL (5-7mCi) alone. Dynamic mage acquisition during ^11C-palmitate and either ^18F-FAA or ^18F-FAA-VLDL can be 30 and 60 min, respectively. The total time of the imaging session can be ˜3 hrs. Three whole-blood arterial samples are collected throughout the study to measure whole blood glucose (5 μL), free fatty acid (20 μL), and insulin (5 μL) levels to confirm the metabolic state of the animals,
Image Processing/Analysis. Dynamic images can be reconstructed using filtered backprojection with a 2.5 zoom on the heart and 40 frames per imaging session. The input function is reconstructed by applying the hybrid image-blood-sampling algorithm as described previously.^25 A myocardial region of interest is placed to generate a myocardial time-activity curve (TAC). The ^18F-FAA and ^18F-FAA-VLDL blood and myocardial TACs can be compared with the ^11C-palmitate TACs for both defiing characteristics (e.g., height and shape) as well as similar kinetics based exponential curve-fitting algorithms. […]

As for `CCCC([18F])CCCCCCCSCCCCC(=O)O` (racemic) [FTHA, 14-(R,S)-^18F-fluoro-6-thiaheptadecanoic acid], in the data set on β-oxidation, the “uptake and retention versus inhibition of β-oxidation by hypoxia” value was “insensitive to the inhibition of β-oxidation by hypoxia”.

For the molecule `O=C(O)CCSCCCCCCCCCCCC[18F]` [FTP, ^18F-fluoro-thia-palmitate], the “deposition versus β-oxidation” value with β-oxidation (normal oxygenation and hypoxic conditions) is “proportional to β-oxidation under normal oxygenation and hypoxic conditions”.

Turning to `CCCCCCCCCCCCCCC[11C](=O)O` [^11C-palmitate], the “washout kinetics from heart” value in data set [1] is “biphasic washout kinetics from heart”. Moreover, in data set [2] (blood and myocardial TACs, fed rat), the “myocardial tracer uptake and washout pattern” value is given as “significant tracer uptake with rapid bi-phasic washout”. For the same molecule, the “tracer clearance late after injection” value in data set [2] (blood and myocardium, up to 60 mins post-tracer injection) was “tracer increased in both, blood and myocardium, 25 mins post tracer injection”.

Take `O=C(O)CCCCCCCCCCCCCCc1ccc(OCC[18F])cc1` [^18F-FAA]: the “tracer clearance late after injection” value in data set [2] (rat, in vivo) is “still prevalent at 60 mins post-tracer injection”.

Regarding `O=C(O)CCCCCCCCCCCCCCc1ccc(I)cc1` [^123I-lPPA, 15-(p-iodophenyl)-pentadecanoic acid], the “washout kinetics from heart” value in data set [1] was “biphasic washout kinetics from heart”.

The record behind these values is patent US20120100073A1, “PET RADIOTRACERS FOR IMAGING FATTY ACID METABOLISM AND STORAGE” (WASHINGTON UNIVERSITY, priority 2009, published 2012).
